This note sets out measurements from publication PMC11476552, “Synthesis and Preliminary Studies for In Vitro Biological Activity of Two New Water-Soluble Bis(thio)carbohydrazones and Their Copper(II) and Zinc(II) Complexes” (International Journal of Molecular Sciences, 2024).

Values joined by “and” are separate entries in the source; they are usually repeats but may differ in a detail not shown here. Equal entries are not always repeated. Where two headings read alike, the source gives them in different places.

One data set has as its system U937 cells. Nature of the data set: Antiproliferative activity, trypan blue cell count, U937. It is filed as cell-based. The following applies: for GI50: Homo sapiens, U-937, U937, 72 h. As to the method: We have started to investigate the antiproliferative profile of the ligands and of the complexes C1–C4 using a normal fibroblast cell line (Hs27) and a leukaemia cell line (U937), an in vitro cell model system systematically used to validate the toxicological profile of new potential anticancer agents. For the cytotoxicity assay, we treated Hs27 and U937 cells with five different concentrations of compound, ranging from 12.5 to 100 µg/mL, for 24, 48, and 72 h.
U937 cells (ATCC, CRL-1593.2) were obtained from the American Tissue Culture Collection (Rockville, MD, USA) and were cultured in Roswell Park Memorial Institute Medium (RPMI-1640) (Euroclone, Italy); Hs27 cells (ATCC, CRL1634) were grown in DMEM. Both media were supplemented with 10% (v/v) foetal bovine serum (Euroclone, Italy), 1% L-glutamine (2 mM) (Euroclone, Italy), and 1% penicillin (100 U/mL)/streptomycin (100 µg/mL) (Euroclone, Italy), added with 10% (v/v) foetal bovine serum (Euroclone, Italy), 1% L-glutamine (2 mM) (Euroclone, Italy), and 1% penicillin (100 U/mL)/streptomycin (100 µg/mL) (Euroclone, Italy). Flasks were maintained at 37 °C and 5% CO2 in a humidified atmosphere. Cultures media were refreshed every two or three days during sub-culturing.
The antiproliferative activity of the ligands and the complexes C1–C4 was evaluated in vitro on U937 and Hs27 cell lines. In the exponential growth phase, cells were seeded at 5 × 10^4/mL into 12-well flat-bottom microplates. Cells were cultured in complete medium supplemented with 10% FBS, 1% L-glutamine, and 1% penicillin/streptomycin at 37 °C, 5% CO2. After seeding, different concentrations of compounds in the range from 0 to 100 µg/mL in a sterile 1X PBS solution were added to the wells and incubated for 24, 48, and 72 h. A negative control was obtained by treating cells with 1X PBS. To detect whether the treatments caused a defect in cell viability, following 24, 48, and 72 h treatments with the compounds, cells were stained with trypan blue (TB, 0.4%) (Gibco™, Thermofisher Scientific, Waltham, MA, USA). Two independent experiments were performed, and a Bürker chamber was used for cell counts. The GI50 value, i.e., the concentration causing a 50% reduction in the cell number in comparison with control cells, was calculated taking into account the guidelines of the US National Cancer Institute (NCI). Values are reported as the mean of the GI50 calculated on two independent experiments.

Data set [1] in a line: Proton dissociation constants by pH potentiometry. Format: physicochemical. The note with it: aqueous solution, T = 298.2 K, I = 0.1 M KCl. An excerpt:
Between pH = 3.98 and 6.00, the solutions were colourless with absorption maxima at 237 and 320 nm. From pH = 6.49, the solution was pale green, and the colour became more intense until pH = 10.00; the colour change was accompanied by the appearance of bands at 253 and 393 nm, with a shoulder at 445 nm. […] This value is similar to that reported for the deprotonation of the phenolic moiety of sodium 5-sulfonate-salicylaldehyde thiosemicarbazones. The values of pKa1 and pKa2, associated with the proton dissociation of the sulfonic groups, are expected to have much lower values (below 3) and could not be determined from these experiments. Potentiometric titrations were performed in an attempt to determine the value of the pKa of the hydrazidic NH protons (pKa5 and pKa6) and, possibly, those of the protonated sulfonate groups. Effectively, potentiometric data allowed us to determine the pKa5 value, along with pKa3 and pKa4 (Table 2). The values of pKa3 and pKa4 obtained by potentiometry are consistent with those obtained by spectrophotometric titrations.
Similarly, the proton dissociation constants of bis-CH were studied spectrophotometrically in aqueous solution between pH = 3.98 and 10.00 (Figure 1B). […] The spectrophotometric data were processed by means of HypSpec2014 software, leading to pKa3 = 7.34(1) and pKa4 = 8.58(1), which were assigned to the deprotonation of the two phenolic OH groups (Table 2). As for bis-TCH, the single-site pKa value of the phenolic groups can be estimated as the average pKa (7.96). Additionally, to complete the analysis, we carried out potentiometric titrations of bis-CH starting from a very acidic pH. […] Importantly, no dissociation of the hydrazidic NH groups was observed, a behaviour consistent with that reported in the literature.
Glass-electrode potentiometric titrations of bis-TCH and bis-CH were carried out in aqueous solution at T = 298.2 ± 0.1 K and I = 0.1 M (KCl) under a stream of N2, using 1.5 mL samples. The potentiometric titrations were carried out using an automatic Metrohm OMNIS titrator provided with a Metrohm semi-micro glass electrode. The system was controlled by a PC to monitor the attainment of the equilibrium through pH measurements vs. time and the addition of titrant aliquots. The Metrohm combined glass electrode was calibrated in terms of [H^+] (hereafter, pH = −log[H^+]) by titrating HCl solutions with KOH solutions previously standardized against potassium hydrogen phthalate. […] The protonation constants of Na2H4L^1·5.5 H2O and Na2H4L^2·5 H2O were determined by alkalimetric titration of 3 samples (3.0–4.5 mM). All samples were prepared by weight of the pure solids and dissolved in freshly prepared, N2-fluxed, double-distilled water. Potentiometric data treatment was carried out using Hyperquad2013 software. Distribution diagrams were obtained using Hyss2009 software.

As for `COc1cc(S(=O)(=O)[O-])cc(/C=N/NC(=O)N/N=C/c2cc(S(=O)(=O)[O-])cc(OC)c2O)c1O.[Na+].[Na+]` [bis-CH, Bis-(sodium 3-methoxy-5-sulfonate-salicylaldehyde)-carbohydrazone], the GI50 with U937 cells is 46.5 µg/mL and 71.8 µM. The “cytotoxic effect (in words)” value with U937 cells (U937, up to 100 µg/mL, 24-72 h) was “mild antiproliferative activity”. Moreover, the pKa in data set [1] (read-out: pKa3) stood at 7.77; in data set [1] (read-out: pKa4), 8.45; in data set [1] (second sulfonic group, read-out: pKa2), 1.7.
With `COc1cc(S(=O)(=O)[O-])cc(/C=N/NC(=S)N/N=C/c2cc(S(=O)(=O)[O-])cc(OC)c2O)c1O.[Na+].[Na+]` [bis-TCH, Bis-(sodium 3-methoxy-5-sulfonate-salicylaldehyde)-thiocarbohydrazone], in the data set on U937 cells, the concentration for 50% growth inhibition (GI50) was 98 µg/mL and 144 µM. In addition, the “reduction in cell viability” value in the data set on U937 cells (U937, highest dose, 72 h) was determined as 50%. In addition, the pKa was 11.3 in data set [1] (hydrazidic NH, read-out: pKa5); 7.08 in data set [1] (read-out: pKa3); 8.54 in data set [1] (read-out: pKa4).

By GI50 is commonly meant the concentration giving 50% growth inhibition. A low value points to greater sensitivity of the cells.
